Experiments:
Format in all cases: in vivo
[1] = test system: Amaranthus retoflexus (AMARE); assay: Post-emergence herbicidal glasshouse test, AMARE; design: dose or concentration left out as unconfirmed; conditions: evaluated after 13 days, five-point scale
Protocol: (§1) Seeds of a variety of test species are sown in standard soil in pots (Lolium perenne (LOLPE), Amaranthus retoflexus (AMARE), Abutilon theophrasti (ABUTH), Setaria faberi (SETFA), Echinochloa crus-galli (ECHCG), Ipomoea hederacea (IPOHE)). After cultivation for one day (pre-emergence) or after 8 days cultivation (post-emergence) under controlled conditions in a glasshouse (at 24/16° C., day/night; 14 hours light; 65% humidity), the plants are sprayed with an aqueous spray solution derived from the formulation of the technical active ingredient in acetone/water (50:50) solution containing 0.5% Tween 20 (polyoxyethelyene sorbitan monolaurate, CAS RN 9005-64-5). Compounds are applied at 125 g/h unless otherwise indicated. The test plants are then grown in a glasshouse under controlled conditions in a glasshouse (at 24/16° C., day/night; 14 hours light; 65% humidity) and watered twice daily. After 13 days for pre and post-emergence, the test is evaluated for the percentage damage caused to the plant. The biological activities are shown in the following table on a five-point scale (5=80-100%; 4=60-79%; 3=40-59%; 2=20-39%; 1=0-19%). “—” denotes not tested on this species or data not captured.

[2] = test system: Abutilon theophrasti (ABUTH); assay: Post-emergence herbicidal glasshouse test, ABUTH; conditions: 125 g/h, evaluated after 13 days, five-point scale
Protocol: as §1

[3] = test system: Setaria faberi (SETFA); assay: Post-emergence herbicidal glasshouse test, SETFA; conditions: 125 g/h, evaluated after 13 days, five-point scale
Protocol: as §1

[4] = test system: Echinochloa crus-galli (ECHCG); assay: Post-emergence herbicidal glasshouse test, ECHCG; conditions: 125 g/h, evaluated after 13 days, five-point scale
Protocol: as §1

[5] = test system: Ipomoea hederacea (IPOHE); assay: Post-emergence herbicidal glasshouse test, IPOHE; conditions: 125 g/h, evaluated after 13 days, five-point scale
Protocol: as §1

[6] = test system: Amaranthus retoflexus (AMARE); assay: Pre-emergence herbicidal glasshouse test, AMARE; conditions: 125 g/h, evaluated after 13 days, five-point scale
Protocol: as §1

[7] = test system: Abutilon theophrasti (ABUTH); assay: Pre-emergence herbicidal glasshouse test, ABUTH; conditions: 125 g/h, evaluated after 13 days, five-point scale
Protocol: as §1

[8] = test system: Setaria faberi (SETFA); assay: Pre-emergence herbicidal glasshouse test, SETFA; conditions: 125 g/h, evaluated after 13 days, five-point scale
Protocol: as §1

[9] = test system: Echinochloa crus-galli (ECHCG); assay: Pre-emergence herbicidal glasshouse test, ECHCG; conditions: 125 g/h, evaluated after 13 days, five-point scale
Protocol: as §1

[10] = test system: Ipomoea hederacea (IPOHE); assay: Pre-emergence herbicidal glasshouse test, IPOHE; conditions: 125 g/h, evaluated after 13 days, five-point scale
Protocol: as §1

COC(=O)Nc1c(OC(F)(F)F)ccc(C(=O)Nc2nnnn2C)c1Cl [Compound 1.001]
5 (5=80-100%): percentage damage caused to the plant, POST Application AMARE [1] | percentage damage caused to the plant, POST Application ABUTH [2] | percentage damage caused to the plant, POST Application SETFA [3] | percentage damage caused to the plant, POST Application ECHCG [4] | percentage damage caused to the plant, POST Application IPOHE [5] | percentage damage caused to the plant, PRE Application AMARE [6] | percentage damage caused to the plant, PRE Application ABUTH [7] | percentage damage caused to the plant, PRE Application SETFA [8] | percentage damage caused to the plant, PRE Application ECHCG [9]
3 (3=40-59%): percentage damage caused to the plant, PRE Application IPOHE [10]

CCOC(=O)Nc1c(OC(F)(F)F)ccc(C(=O)Nc2nnnn2C)c1Cl [Compound 1.002, ethyl N-[2-chloro-3-[(1-methyltetrazol-5-yl)carbamoyl]-6-(trifluoromethoxy)phenyl]carbamate]
4 (4=60-79%): percentage damage caused to the plant, POST Application AMARE [1] | percentage damage caused to the plant, POST Application ABUTH [2] | percentage damage caused to the plant, POST Application SETFA [3] | percentage damage caused to the plant, POST Application ECHCG [4] | percentage damage caused to the plant, POST Application IPOHE [5] | percentage damage caused to the plant, PRE Application SETFA [8]
5 (5=80-100%): percentage damage caused to the plant, PRE Application AMARE [6] | percentage damage caused to the plant, PRE Application ABUTH [7] | percentage damage caused to the plant, PRE Application ECHCG [9] | percentage damage caused to the plant, PRE Application IPOHE [10]

CCn1nnnc1NC(=O)c1ccc(OC(F)(F)F)c(NC(=O)OC)c1Cl [Compound 1.003]
5 (5=80-100%): percentage damage caused to the plant, PRE Application AMARE [6] | percentage damage caused to the plant, PRE Application ABUTH [7] | percentage damage caused to the plant, PRE Application SETFA [8] | percentage damage caused to the plant, PRE Application ECHCG [9]
4 (4=60-79%): percentage damage caused to the plant, POST Application AMARE [1] | percentage damage caused to the plant, POST Application ABUTH [2] | percentage damage caused to the plant, POST Application SETFA [3] | percentage damage caused to the plant, POST Application ECHCG [4] | percentage damage caused to the plant, POST Application IPOHE [5] | percentage damage caused to the plant, PRE Application IPOHE [10]

CC(=O)N1CCC(OC(=O)Nc2c(OC(F)F)ccc(C(=O)Nc3nnnn3C)c2Cl)CC1 [Compound 1.023]
1 (1=0-19%): percentage damage caused to the plant, POST Application IPOHE [5] | percentage damage caused to the plant, PRE Application SETFA [8] | percentage damage caused to the plant, PRE Application ECHCG [9]
2 (2=20-39%): percentage damage caused to the plant, POST Application SETFA [3] | percentage damage caused to the plant, PRE Application IPOHE [10]
4 (4=60-79%): percentage damage caused to the plant, POST Application AMARE [1]
3 (3=40-59%): percentage damage caused to the plant, POST Application ECHCG [4] | percentage damage caused to the plant, PRE Application AMARE [6]

Cn1nnnc1NC(=O)c1ccc(OC(F)F)c(NC(=O)OCCC#N)c1Cl [Compound 1.024]
4 (4=60-79%): percentage damage caused to the plant, POST Application IPOHE [5] | percentage damage caused to the plant, PRE Application ECHCG [9]
3 (3=40-59%): percentage damage caused to the plant, PRE Application SETFA [8]
5 (5=80-100%): percentage damage caused to the plant, POST Application AMARE [1] | percentage damage caused to the plant, POST Application SETFA [3] | percentage damage caused to the plant, POST Application ECHCG [4] | percentage damage caused to the plant, PRE Application AMARE [6] | percentage damage caused to the plant, PRE Application IPOHE [10]

Cn1nnnc1NC(=O)c1ccc(OC(F)F)c(NC(=O)OC2CCOCC2)c1Cl [Compound 1.027]
5 (5=80-100%): percentage damage caused to the plant, POST Application AMARE [1] | percentage damage caused to the plant, POST Application SETFA [3] | percentage damage caused to the plant, POST Application ECHCG [4] | percentage damage caused to the plant, POST Application IPOHE [5] | percentage damage caused to the plant, PRE Application SETFA [8]
4 (4=60-79%): percentage damage caused to the plant, PRE Application AMARE [6] | percentage damage caused to the plant, PRE Application ECHCG [9] | percentage damage caused to the plant, PRE Application IPOHE [10]

CCOC(=O)N(CC)c1c(OC(F)(F)F)ccc(C(=O)Nc2nnnn2C)c1Cl [Compound 1.031]
5 (5=80-100%): percentage damage caused to the plant, POST Application AMARE [1] | percentage damage caused to the plant, POST Application SETFA [3] | percentage damage caused to the plant, POST Application ECHCG [4] | percentage damage caused to the plant, POST Application IPOHE [5] | percentage damage caused to the plant, PRE Application AMARE [6] | percentage damage caused to the plant, PRE Application SETFA [8] | percentage damage caused to the plant, PRE Application ECHCG [9] | percentage damage caused to the plant, PRE Application IPOHE [10]

— patent US12637437B2, “Herbicidal compounds” (SYNGENTA CROP PROTECTION AG, priority 2021, dated 2026)
